{"source": "patent US7923231B2", "about": "“Production of glucuronic acid using myo-inositol oxygenase from cryptococcus neoformans” (Cargill, Incorporated, priority 2004, dated 2011)", "key": {"[1]": {"system": "myo-inositol oxygenase (MIO)", "experiment": "Conversion rate additives in the myo-inositol conversion mixture", "format": "biochemical, Cryptococcus neoformans", "conditions": "additive in conversion mixture", "description": "Although the conversion rate increased, the final conversion percentages were similar to conversion mixtures without those same additives."}, "[2]": {"system": "myo-inositol oxygenase (MIO)", "experiment": "Small-scale biocatalytic conversion: buffer concentration and ionic strength", "format": "biochemical, Cryptococcus neoformans", "conditions": "for increase in initial reaction rate and final concentration of D-glucuronic acid produced: salts concentrations higher than 0.25 M", "procedure": "A small-scale protocol was used to develop the biocatalytic production of glucuronic acid from myo-inositol. Cells containing myo-inositol oxygenase were grown as described before, harvested by centrifugation and washed in 50 mM MOPS buffer at pH 7.0. The cell paste was kept frozen until use. To prepare the enzyme for the reaction, the cells were resuspended in 2 volumes of the same buffer at pH 6.5 and broken using either a French press or a MICROFLUIDICS® homogenizer (MICROFLUIDIZER® cell disruptor M-110L, available from Microfluidics, MA). Breakage was accomplished by 2 to 3 passes at 20,000 psi, and was followed visually using a microscope. The cell extract was centrifuged for 20 minutes at 15,000 rpm to remove the cell debris. Total soluble protein was measured in the clear supernatant, as described in Example 1. The cell extract was diluted to a protein concentration of 75 mg/ml and the enzyme was incubated for 1 hr on ice in the presence of ascorbic acid and ferrous ammonium sulfate at concentrations of 5 and 2 mM, respectively.\nThe enzyme reaction was carried out in 0.7 L reactors with temperature, pH, agitation and dissolved oxygen control. A solution of 50 g/L myo-inositol in 50 mM MOPS at pH 6.5 (200 mL) was used in the standard protocol. Temperature was controlled at 15° C. Pure air, air enriched with oxygen or pure oxygen were used to supply enough oxygen for the reaction to proceed. The air was supplied either in the headspace of the reactor or was sparged into the liquid. The formation of glucuronic acid results in a decrease in the pH of the broth. To keep the pH at the desired value, pH 6.5, the acid was neutralized with 4 N NaOH. The enzyme solution was added to reach an initial concentration of 2 g soluble protein/L. The reaction proceeded very fast immediately after the enzyme addition and the rate decayed over time. Different experiments varied the number and/or amount of enzyme additions. The progress of the reaction was followed by HPLC analysis.\nEffect of buffer concentration and ionic strength. The effect of the buffer concentration was tested with the described protocol of Example 6, and included testing without any buffer, using 5 mM MOPS, and using 50 mM MOPS. No difference in the performance of the reaction was observed, either in reaction rate or in extent of reaction, as long as good pH control was provided.\nAdditionally, further studies on increasing the ionic strength of the broth by adding salts, using either NaCl or sodium glucuronate at 0.25 M and 0.5 M, or mixes of both, indicated better enzyme performance at higher ionic strength."}, "[3]": {"conditions": "cited from earlier work"}, "[4]": {"experiment": "Freeze-thaw and frozen storage stability of MIO activity", "conditions": "continuous storage at −80° C. for several months", "description": "A lysed cell mixture may be added either purified or unpurified into a mixture for MIO activation. If desired, samples containing MIO may be stored prior to use. Samples containing MIO may be stored at low temperatures for short periods of time or may be frozen for longer periods of storage without significant MIO degradation. […] Additional freeze-thaw cycles, however, did reduce MIO activity."}}, "note": "Where two headings read alike, the source gives them in different places.", "data": [{"molecule": "Superoxide dismutase", "values": [{"measurement": "effect on MIO specific activity and conversion rate", "setting": "[1]", "value": "slightly increase"}]}, {"molecule": "O=S(=O)(O)CCCN1CCOCC1", "note": "[MOPS, 3-[N-morpholino]propanesulfonic acid]", "values": [{"measurement": "effect of buffer concentration on reaction rate and extent of reaction", "setting": "[2]; no buffer, 5 mM and 50 mM MOPS, with good pH control", "value": "No difference"}]}, {"molecule": "O=C[C@H](O)[C@@H](O)[C@H](O)[C@H](O)C(=O)[O-].[Na+]", "note": "[sodium glucuronate, reference compound]", "values": [{"measurement": "inhibition of the reaction", "setting": "[2]; high concentrations", "value": "Some inhibition"}, {"measurement": "increase in initial reaction rate and final concentration of D-glucuronic acid produced", "setting": "[2]", "value": "~50", "unit": "%"}]}, {"molecule": "[Cl-].[Na+]", "note": "[NaCl]", "values": [{"measurement": "increase in initial reaction rate and final concentration of D-glucuronic acid produced", "setting": "[2]", "value": "~50", "unit": "%"}]}, {"molecule": "catalase", "values": [{"measurement": "improvement in conversion", "setting": "[1]; after 6.5 hours", "value": 18, "unit": "%"}]}, {"molecule": "N[C@@H](CS)C(=O)O", "note": "[Cysteine]", "values": [{"measurement": "reduction potential", "setting": "[3]; pH 7", "value": "−230", "unit": "mV"}]}, {"molecule": "Bovine serum albumin: protein tested as conversion rate additive", "values": [{"measurement": "effect on MIO specific activity and conversion rate", "setting": "[1]", "value": "minimal effect"}]}, {"molecule": "O=C1O[C@H]([C@@H](O)CO)C(O)=C1O", "note": "[L-ascorbic acid]", "values": [{"measurement": "reduction potential", "setting": "[3]; 25° C.", "value": "+54 mV"}, {"measurement": "reduction potential", "setting": "[3]; 30° C.", "value": "+51.2 mV"}]}, {"molecule": "MIO: Fe(II) containing enzyme that converts myo-inositol to D-glucuronic acid using oxygen (protein, UniProt Q9UGB7 1-285, looked up) Inositol oxygenase: MKVTVGPDPSLVYRPDVDPEVAKDKASFRNYTSGPLLDRVFTTYKLMHTHQTVDFVRSKHAQFGGFSYKKMTVMEAVDLLDGLVDESDPDVDFPNSFHAFQTAEGIRKAHPDKDWFHLVGLLHDLGKVLALFGEPQWAVVGDTFPVGCRPQASVVFCDSTFQDNPDLQDPRYSTELGMYQPHCGLDRVLMSWGHDEYMYQVMKFNKFSLPPEAFYMIRFHSFYPWHTGRDYQQLCSQQDLAMLPWVREFNKFDLYTKCPDLPDVDKLRPYYQGLIDKYCPGILSW", "values": [{"measurement": "MIO activity on long-term storage", "setting": "[4]", "value": "remained stable"}]}]}
